Activity calls are given as the source filed them. The calls are words filed in the database; no cut-off is given here.
Experiments:
Mycobacterium avium [1] = assay: Antimycobacterial activity against Mycobacterium avium 2447 Smt infected in BALB/c mice BMDM assessed as bacterial growth inhibition at 10 uM after 5 days; format: functional, organism-based
Mycobacterium avium [2] = assay: Antimycobacterial activity against Mycobacterium avium 2447 Smt infected in BALB/c mice BMDM assessed as bacterial growth inhibition upto 20 uM after 5 days; format: functional, organism-based

For `Cc1cc(O)c(O)c(CNC(=O)CCC(CCC(=O)NCc2c(O)c(O)cc(C)[n+]2C)(CCC(=O)NCc2c(O)c(O)cc(C)[n+]2C)NC(=O)CCNC(=S)Nc2ccc(C(=O)O)c(-c3c4ccc(=[N+](C)C)cc-4oc4cc(N(C)C)ccc34)c2)[n+]1C`, the inhibition (Mycobacterium avium [1]) was “Active” and the inhibition (Mycobacterium avium [2]) was “Active”.
